Patent US5565455A, “Method for treating substance abuse disorders” (priority 1992, dated 1996)
Counter-ions that a name gives are not always drawn. Like-named read-outs stand apart in the source and are kept apart here.

Legend:
5-HT1A = molecular target: T1, 5-HT1A (Homo sapiens, UniProt P08908); experiment: biochemical; assay type: binding
T1 sequence (P08908 1-422): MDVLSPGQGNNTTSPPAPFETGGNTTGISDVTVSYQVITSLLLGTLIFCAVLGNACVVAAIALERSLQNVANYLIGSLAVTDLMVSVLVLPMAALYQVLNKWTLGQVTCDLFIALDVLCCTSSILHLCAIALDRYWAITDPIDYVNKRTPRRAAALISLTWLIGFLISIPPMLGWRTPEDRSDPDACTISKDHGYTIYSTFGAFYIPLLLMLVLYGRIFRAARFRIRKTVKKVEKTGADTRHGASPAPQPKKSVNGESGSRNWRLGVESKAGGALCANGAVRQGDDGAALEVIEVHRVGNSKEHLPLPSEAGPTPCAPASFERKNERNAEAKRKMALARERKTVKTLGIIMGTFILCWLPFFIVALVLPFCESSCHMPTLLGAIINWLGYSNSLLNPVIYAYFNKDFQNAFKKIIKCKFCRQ

[1] = test system: 5-HT reuptake, synaptosomes from rat frontal cortex; experiment: Inhibition of reuptake of [3H-5-HT] by synaptosomes from rat frontal cortex; assay type: biochemical; settings: method of Shank et al.
[2] = test system: voluntary ethanol consumption in rats; settings: cited from earlier work
5-HT2 = 5-HT2 (Homo sapiens, UniProt P28223); experiment: Drug affinity for 5-HT2 receptor, radioligand 3H-ketanserin, cerebral cortex
[3] = test system: alcohol-dependent individuals; settings: cited from earlier work
[4] = test system: consumption of alcohol by monkeys; settings: cited from earlier work
[5] = test system: Sprague-Dawley rats induced to drink alcohol chronically; experiment: Alcohol drinking in Sprague-Dawley rats induced by cyanamide injections; assay type: in vivo, rat
Procedure: To further illustrate the useful pharmacological properties of FG5893, the effect of FG5893 administered systemically was determined in Sprague-Dawley rats induced to drink alcohol chronically by a series of intraperitoneal injections of cyan-amide according to experimental procedures described previously (Critcher, E. C. and R. D. Myers, Alcohol 4:347-353, 1987). Intakes of food and body weights were recorded.
FG5893 in a dose of 0.5, 1.0 and 2.5 mg/kg was administered twice a day for three consecutive days. […] This finding is notable because drugs that attenuate the preference for alcohol consumed in a concentration of pharmacological consequence typically impair the ingestion of food.

[6] = clinical trial versus placebo in alcohol-dependent individuals
[7] = 0.5, 1.0 and 2.5 mg/kg twice a day for three consecutive days, all doses

5-HT2, sequence (P28223 whole entry, species assumed): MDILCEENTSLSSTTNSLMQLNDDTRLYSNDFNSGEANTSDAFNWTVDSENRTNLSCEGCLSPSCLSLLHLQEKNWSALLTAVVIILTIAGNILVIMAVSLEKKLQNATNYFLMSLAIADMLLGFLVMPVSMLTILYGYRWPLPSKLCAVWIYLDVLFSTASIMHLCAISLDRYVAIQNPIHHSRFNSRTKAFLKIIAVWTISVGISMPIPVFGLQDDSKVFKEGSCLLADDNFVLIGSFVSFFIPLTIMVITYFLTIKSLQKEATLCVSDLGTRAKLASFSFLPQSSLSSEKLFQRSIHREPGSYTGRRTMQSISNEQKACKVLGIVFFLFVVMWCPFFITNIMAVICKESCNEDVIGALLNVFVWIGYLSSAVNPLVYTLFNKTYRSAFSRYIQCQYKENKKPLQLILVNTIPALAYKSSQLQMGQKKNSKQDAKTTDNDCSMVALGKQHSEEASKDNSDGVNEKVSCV

Compound: CCNC(=O)N1CCN(CCCC(c2ccc(F)cc2)c2ccc(F)cc2)CC1 [Amperozide]
- Ki (5-HT1A): 805 nM
- IC50 [1]: 320 nM
- consumption of food and level of body weight ([2]; rat, in vivo): without affecting
- intake of alcohol in rats ([2]; rats): significantly attenuate
- Ki (5-HT2): 17 nM

Compound: O=C1CC2(CCCC2)CC(=O)N1CCCCN1CCN(c2ncccn2)CC1 [Buspirone]
- drop-out rate [3, 6]: lower drop-out rate
- signs of craving [3, 6]: fewer signs of craving
- consumption of alcohol by monkeys [4]: attenuate significantly

Compound: COC(=O)c1cccnc1N1CCN(CCCC(c2ccc(F)cc2)c2ccc(F)cc2)CC1 [FG5893, 2-[4-[4,4-bis(4-fluorophenyl)butyl]-1-piperazinyl]-3-pyridinecarboxylic acid methyl ester dihydrochloride ethylat]
- Ki (5-HT1A; Radioligand 3H-8-OH-DPAT, tissue hippocampus): 0.7 nM
- IC50 [1]: 80 nM
- intake of alcohol, absolute g/kg [5, 7]: significantly reduced
- proportion of alcohol to total fluid intake [5, 7]: significantly reduced
- alcohol consumption after the injection sequence ([5]; 1.0 and 2.5 mg/kg doses, two 4-day tests immediately following the injection sequence and after a 40-day interval): continued to suppress alcohol consumption
- body weights ([5]; during or after administration): Neither body weights nor intakes of food of the rats were affected
- intakes of food ([5]; during or after administration): Neither body weights nor intakes of food of the rats were affected
- Ki (5-HT2): 4 nM

Compound: CN(C)C/C=C(/c1ccc(Br)cc1)c1cccnc1 [Zimelidine]
- IC50 [1]: 120 nM
- number of abstinent days ([3]; human trials): increase
- number of daily drinks ([3]; human trials): slight reduction
- ingestion of food and alcohol ([2]; concomitantly): attenuate
- voluntary ethanol consumption in rats ([2]; rats): potent inhibitory effect
